Results on 24 molecules are retold here after patent US20250092014A1, “COMPOUNDS AND METHODS OF ACTIVATING LIPOPROTEIN LIPASE” (Metrea Biosciences, Inc., priority 2021, published 2025).

pEC50: −log10 of the molar value.

The target in this experiment is T1, LPL:sGPIHBP1 complex (Homo sapiens, UniProt P06858).
T1 sequence (P06858 28-475): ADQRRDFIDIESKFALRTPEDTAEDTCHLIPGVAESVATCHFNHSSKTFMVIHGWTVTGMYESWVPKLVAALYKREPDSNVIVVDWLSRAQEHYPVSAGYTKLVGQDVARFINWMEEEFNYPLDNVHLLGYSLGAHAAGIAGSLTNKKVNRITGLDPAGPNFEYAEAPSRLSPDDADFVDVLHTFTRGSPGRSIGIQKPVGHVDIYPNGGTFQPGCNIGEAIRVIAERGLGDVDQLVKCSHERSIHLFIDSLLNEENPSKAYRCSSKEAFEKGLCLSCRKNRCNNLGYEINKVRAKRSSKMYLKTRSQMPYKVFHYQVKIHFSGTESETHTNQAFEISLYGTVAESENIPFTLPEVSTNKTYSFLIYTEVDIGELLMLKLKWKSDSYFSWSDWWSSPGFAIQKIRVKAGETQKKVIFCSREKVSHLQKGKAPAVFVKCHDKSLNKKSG
T1 sequence (Q8IV16 21-151 partner limits assumed): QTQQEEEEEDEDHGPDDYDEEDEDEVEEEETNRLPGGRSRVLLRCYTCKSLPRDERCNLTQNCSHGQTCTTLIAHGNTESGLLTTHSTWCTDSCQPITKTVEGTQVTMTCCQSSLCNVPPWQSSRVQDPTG
The experiment in a line: RB assay (LPL:sGPIHBP1 pre-incubated with ANGPTL4, RB substrate). The note with it: read-out: RB qAC50. It is filed as biochemical. The protocol:
The assay was performed in black 1536-well plates using purified proteins. To identify compounds that stimulate LPL activity either by directly activating LPL or by inhibiting the antagonist ANGPTL4, the LPL:sGPIHBP1 complex was pre-incubated with ANGPTL4 to decrease LPL activity by 80%. After a 60 min pre-incubation, the reaction was started by adding the RB substrate. 30 min after RB addition, the enzymatic reaction was stopped using SDS. Fluorescence intensity was measured 2 h after stopping the reaction.
20 or 40 nl of compound solution in 100% DMSO were placed in test plate. Then was added LPL:sGPIHBP1 to all wells (diluted in assay buffer to 5 nM; 2 μl/well). This was followed by an addition of ANGPTL4 to compounds and neutral controls (diluted in assay buffer to 20 nM; 1 μl/well). A buffer solution was added to the stimulator control (1 μl/well). The plates were then centrifuged and pre-incubated for 60 min at RT. The reaction was started by adding substrate to all wells (diluted in assay buffer to 40 μM, 1 μl/well). The plated were centrifuged (800 rpm for 1 min) and incubated 30 min at RT (=reaction time). The reaction was stopped by adding SDS to all wells (diluted in water to 2.5%, 2 μl/well); incubated 2 h at RT. The fluorescence intensity (ex 540 nm/em 590 nm) was measured on a Pherastar (BMG) using 5 flashes.
In the case of `O=C(O)Cc1cc(F)ccc1NC(=O)c1ccc(N2CCCCC2)c(NC(=O)c2nn(CC3CC3)c3ccccc23)c1` [Compound 94, 2-(2-(3-(1-(cyclopropylmethyl)-1H-indazole-3-carboxamido)-4-(piperidin-1-yl)benzamido)-5-fluorophenyl)acetic acid], the pEC50 was 5.23.

With `CC(C)Cn1nc(C(=O)Nc2cc(C(=O)Nc3ccc(F)cc3CC(=O)O)ccc2N2CCCCC2)c2ccccc21` [Compound 95, 2-(5-fluoro-2-(3-(1-isobutyl-1H-indazole-3-carboxamido)-4-(piperidin-1-yl)benzamido)phenyl)acetic acid], the pEC50 was 5.30.

`O=C(O)Cc1cc(F)ccc1NC(=O)c1ccc(N2CCCCC2)c(NC(=O)c2nn(CC(F)F)c3ccccc23)c1` [Compound 96, 2-(2-(3-(1-(2,2-difluoroethyl)-1H-indazole-3-carboxamido)-4-(piperidin-1-yl)benzamido)-5-fluorophenyl)acetic acid]: the pEC50 is 5.33.

With `O=C(O)Cc1cc(F)ccc1NC(=O)c1ccc(N2CCCCC2)c(NC(=O)c2nn(C3CC3)c3ccccc23)c1` [Compound 97, 2-(2-(3-(1-cyclopropyl-1H-indazole-3-carboxamido)-4-(piperidin-1-yl)benzamido)-5-fluorophenyl)acetic acid], the pEC50 is 4.89.

`O=C(O)Cc1cc(F)ccc1NC(=O)c1ccc(N2CCCCC2)c(NC(=O)c2nn(CC3CCC3)c3ccccc23)c1` [Compound 98, 2-(2-(3-(1-(cyclobutylmethyl)-1H-indazole-3-carboxamido)-4-(piperidin-1-yl)benzamido)-5-fluorophenyl)acetic acid]: the pEC50 is 5.21.

For the molecule `O=C(O)Cc1cc(F)ccc1NC(=O)c1ccc(N2CCCCC2)c(NC(=O)c2nn(CCO)c3ccccc23)c1` [Compound 99, 2-(5-fluoro-2-(3-(1-(2-hydroxyethyl)-1H-indazole-3-carboxamido)-4-(piperidin-1-yl)benzamido)phenyl)acetic acid], the pEC50 was below 4.60.

Take `NCCn1nc(C(=O)Nc2cc(C(=O)Nc3ccc(F)cc3CC(=O)O)ccc2N2CCCCC2)c2ccccc21` [Compound 100, 2-(2-(3-(1-(2-aminoethyl)-1H-indazole-3-carboxamido)-4-(piperidin-1-yl)benzamido)-5-fluorophenyl)acetic acid]: the pEC50 is below 4.60.

As for `O=C(O)Cc1cc(F)ccc1NC(=O)c1ccc(N2CCCCC2)c(NC(=O)c2nn(CCN3CCCC3)c3ccccc23)c1` [Compound 101, 2-(5-fluoro-2-(4-(piperidin-1-yl)-3-(1-(2-(pyrrolidin-1-yl)ethyl)-1H-indazole-3-carboxamido)benzamido)phenyl)acetic acid], the pEC50 is below 4.60.

As to `N#CCn1nc(C(=O)Nc2cc(C(=O)Nc3ccc(F)cc3CC(=O)O)ccc2N2CCCCC2)c2ccccc21` [Compound 102, 2-(2-(3-(1-(cyanomethyl)-1H-indazole-3-carboxamido)-4-(piperidin-1-yl)benzamido)-5-fluorophenyl)acetic acid], the pEC50 is 5.29.

As to `O=C(O)Cc1cc(F)ccc1NC(=O)c1ccc(N2CCCCC2)c(NC(=O)c2nn(CC3CCNCC3)c3ccccc23)c1` [Compound 103, 2-(5-fluoro-2-(4-(piperidin-1-yl)-3-(1-(piperidin-4-ylmethyl)-1H-indazole-3-carboxamido)benzamido)phenyl)acetic acid], the pEC50 was below 4.60.

For `O=C(O)Cc1cc(F)ccc1NC(=O)c1ccc(N2CCCCC2)c(NC(=O)c2nn(CC3CCOCC3)c3ccccc23)c1` [Compound 104, 2-(5-fluoro-2-(4-(piperidin-1-yl)-3-(1-((tetrahydro-2H-pyran-4-yl)methyl)-1H-indazole-3-carboxamido)benzamido)phenyl)acetic acid], the pEC50 was 5.49.

Regarding `COCCn1nc(C(=O)Nc2cc(C(=O)Nc3ccc(F)cc3CC(=O)O)ccc2N2CCCCC2)c2ccccc21` [Compound 105, 2-(5-fluoro-2-(3-(1-(2-methoxyethyl)-1H-indazole-3-carboxamido)-4-(piperidin-1-yl)benzamido)phenyl)acetic acid], the pEC50 was 4.85.

As to `CC(C)(O)Cn1nc(C(=O)Nc2cc(C(=O)Nc3ccc(F)cc3CC(=O)O)ccc2N2CCCCC2)c2ccccc21` [Compound 106, 2-(5-fluoro-2-(3-(1-(2-hydroxy-2-methylpropyl)-1H-indazole-3-carboxamido)-4-(piperidin-1-yl)benzamido)phenyl)acetic acid], the pEC50 was 5.11.

For `O=C(O)Cc1cc(F)ccc1NC(=O)c1ccc(N2CCCCC2)c(NC(=O)c2nn(CC(F)(F)F)c3ccncc23)c1` [Compound 107, 2-(5-fluoro-2-(4-(piperidin-1-yl)-3-(1-(2,2,2-trifluoroethyl)-1H-pyrazolo[4,3-c]pyridine-3-carboxamido)benzamido)phenyl)acetic acid], the pEC50 is below 5.15.

`O=C(O)Cc1cc(F)ccc1NC(=O)c1ccc(N2CCCCC2)c(NC(=O)c2cn3ccccc3n2)c1` [Compound 109, 2-(5-fluoro-2-(3-(imidazo[1,2-a]pyridine-2-carboxamido)-4-(piperidin-1-yl)benzamido)phenyl)acetic acid]: the pEC50 was below 4.60.

With `Cc1nc(C(=O)Nc2cc(C(=O)Nc3ccc(F)cc3CC(=O)O)ccc2N2CCCCC2)n2ccccc12` [Compound 110, 2-(5-fluoro-2-(3-(1-methylimidazo[1,5-a]pyridine-3-carboxamido)-4-(piperidin-1-yl)benzamido)phenyl)acetic acid], the pEC50 is below 5.15.

With `O=C(O)Cc1cc(F)ccc1NC(=O)c1ccc(N2CCCCC2)c(NC(=O)c2nn(CC(F)(F)F)c3cccnc23)c1` [Compound 111, 2-(5-fluoro-2-(4-(piperidin-1-yl)-3-(1-(2,2,2-trifluoroethyl)-1H-pyrazolo[4,3-b]pyridine-3-carboxamido)benzamido)phenyl)acetic acid], the pEC50 is 4.64.

For `O=C(O)Cc1cc(F)ccc1NC(=O)c1ccc(N2CCCCC2)c(NC(=O)c2nn(CC(F)(F)F)c3cnccc23)c1` [Compound 112, 2-(5-fluoro-2-(4-(piperidin-1-yl)-3-(1-(2,2,2-trifluoroethyl)-1H-pyrazolo[3,4-c]pyridine-3-carboxamido)benzamido)phenyl)acetic acid], the pEC50 was 5.19.

For the molecule `O=C(O)Cc1cc(F)ccc1NC(=O)c1ccc(N2CCCCC2)c(NC(=O)c2nn(CC(F)(F)F)c3ncccc23)c1` [Compound 113, 2-(5-fluoro-2-(4-(piperidin-1-yl)-3-(1-(2,2,2-trifluoroethyl)-1H-pyrazolo[3,4-b]pyridine-3-carboxamido)benzamido)phenyl)acetic acid], the pEC50 is 5.05.

With `O=C(O)Cc1cc(F)ccc1NC(=O)c1ccc(N2CCCCC2)c(NC(=O)c2nn(CC(F)(F)F)cc2-c2ccccc2)c1` [Compound 115, 2-(5-fluoro-2-(3-(4-phenyl-1-(2,2,2-trifluoroethyl)-1H-pyrazole-3-carboxamido)-4-(piperidin-1-yl)benzamido)phenyl)acetic acid], the pEC50 was below 5.15.

`O=C(O)Cc1cc(F)ccc1NC(=O)c1ccc(N2CCCCC2)c(NC(=O)c2cc(-c3ccccc3)n(CC(F)(F)F)n2)c1` [Compound 116, 2-(5-fluoro-2-(3-(5-phenyl-1-(2,2,2-trifluoroethyl)-1H-pyrazole-3-carboxamido)-4-(piperidin-1-yl)benzamido)phenyl)acetic acid]: the pEC50 is 4.64.

`O=C(O)Cc1cc(F)ccc1NC(=O)c1ccc(N2CCCCC2)c(NC(=O)c2nn(CC(F)(F)F)cc2C2CC2)c1` [Compound 117, 2-(2-(3-(4-cyclopropyl-1-(2,2,2-trifluoroethyl)-1H-pyrazole-3-carboxamido)-4-(piperidin-1-yl)benzamido)-5-fluorophenyl)acetic acid]: the pEC50 is below 4.60.

`O=C(O)Cc1cc(F)ccc1NC(=O)c1ccc(N2CCCCC2)c(NC(=O)c2nn(CC3CCOC3)c3ccccc23)c1` (stereo not drawn) [Compound 118, 2-(5-fluoro-2-(4-(piperidin-1-yl)-3-(1-((tetrahydrofuran-3-yl)methyl)-1H-indazole-3-carboxamido)benzamido)phenyl)acetic acid]: the pEC50 is below 5.15.

`O=C(O)Cc1cc(F)ccc1NC(=O)c1ccc(N2CCCCC2)c(NC(=O)c2nn(CC3CCCO3)c3ccccc23)c1` (stereo not drawn) [Compound 119, 2-(5-fluoro-2-(4-(piperidin-1-yl)-3-(1-((tetrahydrofuran-2-yl)methyl)-1H-indazole-3-carboxamido)benzamido)phenyl)acetic acid]: the pEC50 is 5.18.
